Test results reported in the NIST ThermoML archive (doi:10.1016/j.jct.2015.01.004).
Values joined by “and” are separate entries in the source; they are usually repeats but may differ in a detail not shown here. Equal values may be shown once. ± gives the expanded uncertainty stated by the source.

Assay: molar heat capacity at constant pressure; xn = mol fraction of the nth substance listed
Conditions: 100 kPa

[Si] [silicon] + [Li]
Conditions | molar heat capacity at constant pressure
2.03 K, Crystal of intercomponent compound 1, relaxation calorimetry, x2 = 0.81 | 0.0088 ± 0.0007 J/K/mol
2.03 K, Crystal of intercomponent compound 2, relaxation calorimeter, x2 = 0.804 | 0.0022 ± 0.0002 J/K/mol
2.13 K, Crystal of intercomponent compound 1, relaxation calorimetry, x2 = 0.81 | 0.0091 ± 0.0007 J/K/mol
2.13 K, Crystal of intercomponent compound 2, relaxation calorimeter, x2 = 0.804 | 0.0023 ± 0.0002 J/K/mol
2.14 K, Crystal of intercomponent compound 2, relaxation calorimeter, x2 = 0.804 | 0.0022 ± 0.0002 J/K/mol
2.25 K, Crystal of intercomponent compound 1, relaxation calorimetry, x2 = 0.81 | 0.0096 ± 0.0008 J/K/mol
2.25 K, Crystal of intercomponent compound 2, relaxation calorimeter, x2 = 0.804 | 0.0024 ± 0.0002 J/K/mol and 0.0023 ± 0.0002 J/K/mol
2.37 K, Crystal of intercomponent compound 1, relaxation calorimetry, x2 = 0.81 | 0.0101 ± 0.0008 J/K/mol
2.37 K, Crystal of intercomponent compound 2, relaxation calorimeter, x2 = 0.804 | 0.0024 ± 0.0002 J/K/mol and 0.0025 ± 0.0002 J/K/mol
2.49 K, Crystal of intercomponent compound 1, relaxation calorimetry, x2 = 0.81 | 0.0107 ± 0.0008 J/K/mol
2.49 K, Crystal of intercomponent compound 2, relaxation calorimeter, x2 = 0.804 | 0.0026 ± 0.0002 J/K/mol
2.5 K, Crystal of intercomponent compound 2, relaxation calorimeter, x2 = 0.804 | 0.0025 ± 0.0002 J/K/mol
2.63 K, Crystal of intercomponent compound 1, relaxation calorimetry, x2 = 0.81 | 0.0111 ± 0.0009 J/K/mol
2.63 K, Crystal of intercomponent compound 2, relaxation calorimeter, x2 = 0.804 | 0.0028 ± 0.0002 J/K/mol and 0.0025 ± 0.0002 J/K/mol
2.77 K, Crystal of intercomponent compound 1, relaxation calorimetry, x2 = 0.81 | 0.0116 ± 0.0009 J/K/mol
2.77 K, Crystal of intercomponent compound 2, relaxation calorimeter, x2 = 0.804 | 0.0028 ± 0.0002 J/K/mol
2.92 K, Crystal of intercomponent compound 1, relaxation calorimetry, x2 = 0.81 | 0.0121 ± 0.001 J/K/mol
2.92 K, Crystal of intercomponent compound 2, relaxation calorimeter, x2 = 0.804 | 0.0031 ± 0.0003 J/K/mol and 0.003 ± 0.0002 J/K/mol
3.08 K, Crystal of intercomponent compound 1, relaxation calorimetry, x2 = 0.81 | 0.0126 ± 0.001 J/K/mol
3.08 K, Crystal of intercomponent compound 2, relaxation calorimeter, x2 = 0.804 | 0.0032 ± 0.0003 J/K/mol and 0.003 ± 0.0002 J/K/mol
3.24 K, Crystal of intercomponent compound 1, relaxation calorimetry, x2 = 0.81 | 0.0133 ± 0.001 J/K/mol
3.24 K, Crystal of intercomponent compound 2, relaxation calorimeter, x2 = 0.804 | 0.0035 ± 0.0003 J/K/mol and 0.0032 ± 0.0003 J/K/mol
3.41 K, Crystal of intercomponent compound 1, relaxation calorimetry, x2 = 0.81 | 0.0135 ± 0.0011 J/K/mol
3.41 K, Crystal of intercomponent compound 2, relaxation calorimeter, x2 = 0.804 | 0.0036 ± 0.0003 J/K/mol
3.6 K, Crystal of intercomponent compound 1, relaxation calorimetry, x2 = 0.81 | 0.0141 ± 0.0011 J/K/mol
3.6 K, Crystal of intercomponent compound 2, relaxation calorimeter, x2 = 0.804 | 0.0039 ± 0.0003 J/K/mol and 0.0036 ± 0.0003 J/K/mol
3.79 K, Crystal of intercomponent compound 1, relaxation calorimetry, x2 = 0.81 | 0.015 ± 0.0012 J/K/mol
3.79 K, Crystal of intercomponent compound 2, relaxation calorimeter, x2 = 0.804 | 0.0041 ± 0.0003 J/K/mol and 0.004 ± 0.0003 J/K/mol
3.99 K, Crystal of intercomponent compound 1, relaxation calorimetry, x2 = 0.81 | 0.0157 ± 0.0012 J/K/mol
3.99 K, Crystal of intercomponent compound 2, relaxation calorimeter, x2 = 0.804 | 0.0044 ± 0.0004 J/K/mol and 0.0042 ± 0.0003 J/K/mol
4.2 K, Crystal of intercomponent compound 1, relaxation calorimetry, x2 = 0.81 | 0.0163 ± 0.0013 J/K/mol
4.2 K, Crystal of intercomponent compound 2, relaxation calorimeter, x2 = 0.804 | 0.0047 ± 0.0004 J/K/mol and 0.0044 ± 0.0004 J/K/mol
4.43 K, Crystal of intercomponent compound 1, relaxation calorimetry, x2 = 0.81 | 0.0172 ± 0.0014 J/K/mol
4.43 K, Crystal of intercomponent compound 2, relaxation calorimeter, x2 = 0.804 | 0.0048 ± 0.0004 J/K/mol and 0.005 ± 0.0004 J/K/mol
4.66 K, Crystal of intercomponent compound 2, relaxation calorimeter, x2 = 0.804 | 0.0051 ± 0.0004 J/K/mol
4.67 K, Crystal of intercomponent compound 1, relaxation calorimetry, x2 = 0.81 | 0.0175 ± 0.0014 J/K/mol
4.67 K, Crystal of intercomponent compound 2, relaxation calorimeter, x2 = 0.804 | 0.0052 ± 0.0004 J/K/mol
4.91 K, Crystal of intercomponent compound 2, relaxation calorimeter, x2 = 0.804 | 0.0056 ± 0.0004 J/K/mol
4.92 K, Crystal of intercomponent compound 1, relaxation calorimetry, x2 = 0.81 | 0.0182 ± 0.0014 J/K/mol
4.92 K, Crystal of intercomponent compound 2, relaxation calorimeter, x2 = 0.804 | 0.0054 ± 0.0004 J/K/mol
5 K, Crystal of intercomponent compound 1, relaxation calorimetry + DSC, x2 = 0.81 | 0.0184 ± 0.0014 J/K/mol
5 K, Crystal of intercomponent compound 2, relaxation calorimetry + DSC, x2 = 0.804 | 0.0056 ± 0.0005 J/K/mol
5.18 K, Crystal of intercomponent compound 1, relaxation calorimetry, x2 = 0.81 | 0.0193 ± 0.0015 J/K/mol
5.18 K, Crystal of intercomponent compound 2, relaxation calorimeter, x2 = 0.804 | 0.006 ± 0.0005 J/K/mol and 0.0057 ± 0.0005 J/K/mol
5.46 K, Crystal of intercomponent compound 2, relaxation calorimeter, x2 = 0.804 | 0.0064 ± 0.0005 J/K/mol
5.47 K, Crystal of intercomponent compound 1, relaxation calorimetry, x2 = 0.81 | 0.0201 ± 0.0016 J/K/mol
5.47 K, Crystal of intercomponent compound 2, relaxation calorimeter, x2 = 0.804 | 0.0061 ± 0.0005 J/K/mol
5.76 K, Crystal of intercomponent compound 1, relaxation calorimetry, x2 = 0.81 | 0.0206 ± 0.0016 J/K/mol
5.76 K, Crystal of intercomponent compound 2, relaxation calorimeter, x2 = 0.804 | 0.007 ± 0.0006 J/K/mol and 0.0066 ± 0.0005 J/K/mol
6.07 K, Crystal of intercomponent compound 1, relaxation calorimetry, x2 = 0.81 | 0.0218 ± 0.0017 J/K/mol
6.07 K, Crystal of intercomponent compound 2, relaxation calorimeter, x2 = 0.804 | 0.0075 ± 0.0006 J/K/mol and 0.0071 ± 0.0006 J/K/mol
6.39 K, Crystal of intercomponent compound 1, relaxation calorimetry, x2 = 0.81 | 0.0227 ± 0.0018 J/K/mol
6.39 K, Crystal of intercomponent compound 2, relaxation calorimeter, x2 = 0.804 | 0.0083 ± 0.0007 J/K/mol and 0.0079 ± 0.0006 J/K/mol
6.73 K, Crystal of intercomponent compound 1, relaxation calorimetry, x2 = 0.81 | 0.0242 ± 0.0019 J/K/mol
6.73 K, Crystal of intercomponent compound 2, relaxation calorimeter, x2 = 0.804 | 0.0091 ± 0.0007 J/K/mol and 0.0088 ± 0.0007 J/K/mol
7.09 K, Crystal of intercomponent compound 1, relaxation calorimetry, x2 = 0.81 | 0.0252 ± 0.002 J/K/mol
7.09 K, Crystal of intercomponent compound 2, relaxation calorimeter, x2 = 0.804 | 0.0098 ± 0.0008 J/K/mol and 0.01 ± 0.0008 J/K/mol
7.47 K, Crystal of intercomponent compound 1, relaxation calorimetry, x2 = 0.81 | 0.0267 ± 0.0021 J/K/mol
7.47 K, Crystal of intercomponent compound 2, relaxation calorimeter, x2 = 0.804 | 0.0113 ± 0.0009 J/K/mol and 0.0109 ± 0.0009 J/K/mol
7.87 K, Crystal of intercomponent compound 1, relaxation calorimetry, x2 = 0.81 | 0.0284 ± 0.0022 J/K/mol
7.87 K, Crystal of intercomponent compound 2, relaxation calorimeter, x2 = 0.804 | 0.0126 ± 0.001 J/K/mol and 0.0123 ± 0.001 J/K/mol
8.29 K, Crystal of intercomponent compound 2, relaxation calorimeter, x2 = 0.804 | 0.0143 ± 0.0011 J/K/mol and 0.0139 ± 0.0011 J/K/mol
8.3 K, Crystal of intercomponent compound 1, relaxation calorimetry, x2 = 0.81 | 0.0304 ± 0.0024 J/K/mol
8.74 K, Crystal of intercomponent compound 1, relaxation calorimetry, x2 = 0.81 | 0.0327 ± 0.0026 J/K/mol
8.74 K, Crystal of intercomponent compound 2, relaxation calorimeter, x2 = 0.804 | 0.016 ± 0.0013 J/K/mol and 0.0162 ± 0.0013 J/K/mol
9.2 K, Crystal of intercomponent compound 1, relaxation calorimetry, x2 = 0.81 | 0.0351 ± 0.0028 J/K/mol
9.2 K, Crystal of intercomponent compound 2, relaxation calorimeter, x2 = 0.804 | 0.0183 ± 0.0014 J/K/mol and 0.0187 ± 0.0015 J/K/mol
9.69 K, Crystal of intercomponent compound 2, relaxation calorimeter, x2 = 0.804 | 0.0216 ± 0.0017 J/K/mol and 0.0208 ± 0.0016 J/K/mol
9.7 K, Crystal of intercomponent compound 1, relaxation calorimetry, x2 = 0.81 | 0.038 ± 0.003 J/K/mol
10 K, Crystal of intercomponent compound 1, relaxation calorimetry + DSC, x2 = 0.81 | 0.0403 ± 0.0032 J/K/mol
10 K, Crystal of intercomponent compound 2, relaxation calorimetry + DSC, x2 = 0.804 | 0.0233 ± 0.002 J/K/mol
10.22 K, Crystal of intercomponent compound 1, relaxation calorimetry, x2 = 0.81 | 0.0412 ± 0.0032 J/K/mol
10.22 K, Crystal of intercomponent compound 2, relaxation calorimeter, x2 = 0.804 | 0.0245 ± 0.0019 J/K/mol and 0.025 ± 0.002 J/K/mol
10.75 K, Crystal of intercomponent compound 1, relaxation calorimetry, x2 = 0.81 | 0.0449 ± 0.0035 J/K/mol
10.75 K, Crystal of intercomponent compound 2, relaxation calorimeter, x2 = 0.804 | 0.0286 ± 0.0022 J/K/mol and 0.0291 ± 0.0023 J/K/mol
11.32 K, Crystal of intercomponent compound 1, relaxation calorimetry, x2 = 0.81 | 0.0492 ± 0.0039 J/K/mol
11.32 K, Crystal of intercomponent compound 2, relaxation calorimeter, x2 = 0.804 | 0.0342 ± 0.0027 J/K/mol and 0.0335 ± 0.0026 J/K/mol
11.93 K, Crystal of intercomponent compound 1, relaxation calorimetry, x2 = 0.81 | 0.0547 ± 0.0043 J/K/mol
11.93 K, Crystal of intercomponent compound 2, relaxation calorimeter, x2 = 0.804 | 0.0403 ± 0.0032 J/K/mol and 0.0398 ± 0.0031 J/K/mol
12.56 K, Crystal of intercomponent compound 1, relaxation calorimetry, x2 = 0.81 | 0.0613 ± 0.0048 J/K/mol
